Data set [1] concerns female volunteers with a dark skin type (phototype IV or more) and dull skin. Kind of data set: Clinical evaluation on African skin: skin color by Chromameter L* parameter. Particulars: cream with 0.01% of EGCG aglycone, full face twice daily, dark skin type. In kind it is in vivo, human. How it is done:
The clinical study was carried out on 85 female volunteers aged from 19 to 47 years, which were divided in three groups: active, placebo and aglycone. The study was performed in South Africa on female volunteers with a dark skin type (phototype IV or more) and dull skin. All participants provided signed informed consent at the beginning of the study. The study was conducted according to the guidelines of the Declaration of Helsinki. […] Skin color evolution was measured after 14, 28 and 56 days using L* parameter measurement by Chromameter®.
The skin color was evaluated by means of a Chromameter CR400, which measures skin color, and the parameter L* (lightness) was recorded. The greater the value, the lighter the skin color. Depending on the test type, at least three or at least 15 readings were taken at each test sub-site for each time interval to serve as the specific pigmentation sport color measurement component of the study. Skin color was analyzed at D0, D14, D28 and D56.
For all studies in vivo, a Shapiro Wilk test was used to verify whether the raw data followed the Gaussian Law. In case of Normally-distributed data, the mean values were compared using either an unpaired or paired t student test. In case of non-Normally-distributed data, a Wilcoxon (paired) and Kruskal-Wallis test followed by a Mann-Whitney U (unpaired) test were used for paired data and unpaired data, respectively.

Data set [2] has as its system spontaneous formation of Advanced Glycation End-products (AGEs). The data set is described as follows: Anti-glycation in tubo assay (BSA + ribose, fluorescence). It is filed as biochemical. The following applies: 17 h at 37° C.; for IC50: BSA + ribose, read-out: IC50 in well (concentration which inhibits AGEs formation by half). How it is done: The anti-glycation effect was evaluated using an in tubo assay to measure the spontaneous formation of Advanced Glycation End-products (AGEs). This assay was conducted on a 96-wells microplate. […] The extracts were diluted in sodium phosphate buffer (0.1 M, pH 7.4). Several dilutions were tested. Each diluted extract was run in triplicate. A standard range of aminoguanidine was used as inhibitor reference (positive control). A mixture of the sodium phosphate buffer and BSA was used to validate the experiment and a mixture of sodium phosphate buffer, BSA and ribose was used as the positive control. Two blanks were carried out for the extract: • with phosphate buffer, BSA and extract • with phosphate buffer, ribose and extract The microplate was agitated and incubated for 17 h at 37° C. The fluorescence reading was performed with ? excitation 340 nm and ? emission 420 nm. The anti-glycation activity of the extract was calculated as follows: [formula] FI: Fluorescence of tested extract; blank extract (ribose or BSA); positive control; negative control. Based on the above measurements and calculation, the IC50, i.e. the concentration of the extract which inhibits AGEs formation by half, was calculated.

Data set [3] has as its system human skin explants. The data set is described as follows: Whitening activity (ex vivo), Fontana-Masson staining for melanin quantification. It is filed as cell-based. Particulars: at 2%, topical, 7 days. The protocol: Fresh human skin explants were obtained from skin phototype III and VI donors, aged of 46±25 years. […] Kojic acid (Sigma-Aldrich) at 2% was topically applied and incubated under the same conditions, serving as positive control. The untreated condition was treated with the vehicle (distilled water). The medium was renewed every other day. After the end of culture, the skin explants were sampled and put in formalin before being dehydrated and embedded in paraffin for Fontana-Masson staining.
Skin explants fixed in formalin were dehydrated and embedded in paraffin. Sections of 4 μm thickness were dewaxed and then stained by Fontana-Masson silver method for melanin.
Images were collected using an Axio Observer Inverted fluorescence microscope (Zeiss) in bright field mode.
Melanin was quantified using two open source optical imaging software programs. Photomicrographs (jpeg format) of Fontana-Masson tissue sections were opened in GIMP-GNU Image Manipulation Program. The brown-black color signals corresponding to melanin grains on stained sections were selected, copied and pasted into a new image and saved as a jpeg file; this jpeg file consists solely of black/brown (melanin grains) on a white background. This image was subsequently opened using the ImageJ program. The image was then inverted and the mean intensity was obtained.

Data set [4] concerns Normal Human Epidermal Keratinocytes (NHEKs). Kind of data set: Antioxidant activity: ROS production in keratinocytes stressed with TBP (DCFH-DA probe). It is filed as cell-based. Particulars: at 200 μM. The protocol:
A 96 wells-plate was coated with a collagen I solution at 50 μg/ml. Normal Human Epidermal Keratinocytes (NHEKs) were seeded at 20′000 cells per well with four replicates. Cells were incubated for 24 hours in complete medium (Epilife, Gibco) supplemented with Human keratinocyte growth supplements (HKGS) factor (Gibco) and 1% antibiotics (Sigma) at 37° C. with 5% CO2. […] The evolution of the fluorescence was followed for 1 hour.

A short description of data set [5]: Skin penetration by Raman spectroscopy (ex vivo). Particulars: human. In kind it is in vitro ADME, human. How it is done:
At the end of the incubation period, the skin explants were frozen in Optimal Cutting Temperature (OCT; VWR) at −80° C. and then cut longitudinally using a cryotome with a thickness of 20 μm. For each explant, 3 tissue sections were selected and deposited on a CaF2 support for Raman imaging analysis. The processing of corrected data maps was performed by using a software based on least squares fitting method that operates in the Matlab environment. This method involves mathematical modeling of reference spectra in the overall spectral image to determine the contribution and distribution of these spectra within the image. The reference spectra were the modelled spectra of the following products: Aglycone, glucoside mixture, 4′-O-α-monoglucoside and untreated skin control.

In the case of `O=C(O[C@@H]1Cc2c(O)cc(O)cc2O[C@@H]1c1cc(O)c(O)c(O)c1)c1cc(O)c(O)c(O)c1` [EGCG aglycone, epigallocatechin gallate], in data set [1], the “L* on uneven skin tone area” value is on record as “slight decrease of L*”. Moreover, the “global skin color whitening, 15 measurements on hemi face” value in data set [1] is “almost no whitening effect”. Further, in data set [2], the IC50 came out at 128 µM. Besides, the “Inhibition AGE's” value in data set [2] (tested concentration 0.109 mM) stood at 31.95%; in data set [2] (tested concentration 0.436 mM), 59.84%; in data set [2] (tested concentration 2.180 mM), 93.56%; in data set [2] (tested concentration 10.9 mM), 97.36%.
Consider `O=c1cc(CO)occ1O` [Kojic acid], for which the “reduction of melanin content compared to untreated” value in data set [3] is 34%.
With `Oc1ccc(C=Cc2cc(O)cc(O)c2)cc1` [Resveratrol], the “reduction of ROS production” value in data set [4] (24 h, NHEKs stressed with TBP 5 mM) was 61%. In data set [4] (TBP column = 100, Untreated = 27.5), the “ROS, Mean (% of untreated)” value was 39 % of untreated.
As to `N=C(N)NN` [aminoguanidine, reference compound], the IC50 in data set [2] was 326 µM.
`OCC1OC(Oc2c(O)cc(C3Oc4cc(O)cc(O)c4CC3O)cc2O)C(O)C(O)C1O` (stereo not drawn) [epigallocatechin 4′-O-α-monoglucoside, Epigallocatechin 4′-O-α-monoglucoside]: the “bioavailability in the skin” value in data set [5] is reported as “much higher bioavailability in the skin than the respective aglycones”.

The values above are taken from patent US20260152777A1, “METHOD FOR PRODUCING EPIGALLOCATECHIN GALLATE MONOGLUCOSIDE” (GIVAUDAN SA, priority 2022, published 2026).
